This passage reports IC50 results from patent US8927533B2, “Thio derivatives bearing lactams as potent HDAC inhibitors and their uses as medicaments” (SIGMA-TAU Industrie Farmaceutiche Riunite S.p.A., priority 2011, dated 2015).

SMILES strings stand for the structures. Like-named read-outs stand apart in the source and are kept apart here.

Holding throughout (type): biochemical
The target in experiment [1] is T1, HDAC6 (Homo sapiens, UniProt Q9UBN7).
T1 sequence (Q9UBN7 1-1215): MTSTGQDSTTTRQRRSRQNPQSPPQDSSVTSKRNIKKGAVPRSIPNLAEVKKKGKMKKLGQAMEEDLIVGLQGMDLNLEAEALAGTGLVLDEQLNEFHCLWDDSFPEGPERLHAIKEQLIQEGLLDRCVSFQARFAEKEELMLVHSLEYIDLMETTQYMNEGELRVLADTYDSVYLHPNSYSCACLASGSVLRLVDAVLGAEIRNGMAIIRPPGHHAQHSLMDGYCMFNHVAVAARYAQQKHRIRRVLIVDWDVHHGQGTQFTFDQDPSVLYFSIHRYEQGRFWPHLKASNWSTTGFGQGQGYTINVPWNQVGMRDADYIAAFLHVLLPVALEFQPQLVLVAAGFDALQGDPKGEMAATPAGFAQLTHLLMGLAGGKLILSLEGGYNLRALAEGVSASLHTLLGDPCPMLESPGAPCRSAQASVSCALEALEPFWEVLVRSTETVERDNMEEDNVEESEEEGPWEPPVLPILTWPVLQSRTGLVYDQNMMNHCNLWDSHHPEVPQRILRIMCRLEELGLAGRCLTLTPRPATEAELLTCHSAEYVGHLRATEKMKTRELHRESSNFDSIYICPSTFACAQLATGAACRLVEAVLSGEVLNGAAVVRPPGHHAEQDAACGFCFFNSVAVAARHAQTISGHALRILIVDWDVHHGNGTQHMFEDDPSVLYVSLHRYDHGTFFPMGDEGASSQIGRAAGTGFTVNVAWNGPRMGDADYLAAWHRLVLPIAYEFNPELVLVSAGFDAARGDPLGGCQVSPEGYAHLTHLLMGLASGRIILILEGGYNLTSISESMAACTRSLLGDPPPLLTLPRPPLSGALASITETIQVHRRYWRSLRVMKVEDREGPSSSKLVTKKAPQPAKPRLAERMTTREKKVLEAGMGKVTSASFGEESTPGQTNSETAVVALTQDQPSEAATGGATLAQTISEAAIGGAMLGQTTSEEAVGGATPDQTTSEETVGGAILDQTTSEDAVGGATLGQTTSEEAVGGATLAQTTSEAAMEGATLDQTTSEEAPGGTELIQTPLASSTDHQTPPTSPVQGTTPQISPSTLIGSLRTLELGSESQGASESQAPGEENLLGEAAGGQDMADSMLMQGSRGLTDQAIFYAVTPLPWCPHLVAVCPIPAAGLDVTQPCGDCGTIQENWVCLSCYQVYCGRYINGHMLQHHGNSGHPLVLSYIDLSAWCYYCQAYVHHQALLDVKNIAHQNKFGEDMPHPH
As to the kind of experiment: HDAC enzymatic assay, HDAC6. Here is the method:
(§1) Each compound was dissolved in DMSO, and progressively diluted solutions were used for testing. […] Upon its deacetylation, the fluorophore was released given rise to fluorescence emission which was detected by a fluorimeter, and the IC50 values of the compounds were determined by analyzing dose-response inhibition curves.

Experiment [2] addresses HDAC4 (Homo sapiens, UniProt P56524). Put plainly: HDAC enzymatic assay, HDAC4. The method, then:
as §1

Experiment [3] deals with T2, HDAC11 (Homo sapiens, UniProt Q96DB2).
T2 sequence (Q96DB2 1-347): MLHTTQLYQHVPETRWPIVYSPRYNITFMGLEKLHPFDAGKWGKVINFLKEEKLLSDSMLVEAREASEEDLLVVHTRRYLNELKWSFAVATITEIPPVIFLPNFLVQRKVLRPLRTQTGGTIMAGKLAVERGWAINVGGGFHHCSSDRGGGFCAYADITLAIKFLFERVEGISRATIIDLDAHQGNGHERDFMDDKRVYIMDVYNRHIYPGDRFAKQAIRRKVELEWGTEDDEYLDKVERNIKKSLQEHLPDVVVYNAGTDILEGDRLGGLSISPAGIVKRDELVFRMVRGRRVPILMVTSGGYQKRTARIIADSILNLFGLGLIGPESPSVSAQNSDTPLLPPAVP
Put plainly: HDAC enzymatic assay, HDAC11. Here is the method:
as §1

In experiment [4] the target is HDAC2 (Homo sapiens, UniProt Q92769). Put plainly: HDAC enzymatic assay, HDAC2. Here is the method: as §1
Chain of HDAC2 (Q92769 whole entry, the tested form may be a part): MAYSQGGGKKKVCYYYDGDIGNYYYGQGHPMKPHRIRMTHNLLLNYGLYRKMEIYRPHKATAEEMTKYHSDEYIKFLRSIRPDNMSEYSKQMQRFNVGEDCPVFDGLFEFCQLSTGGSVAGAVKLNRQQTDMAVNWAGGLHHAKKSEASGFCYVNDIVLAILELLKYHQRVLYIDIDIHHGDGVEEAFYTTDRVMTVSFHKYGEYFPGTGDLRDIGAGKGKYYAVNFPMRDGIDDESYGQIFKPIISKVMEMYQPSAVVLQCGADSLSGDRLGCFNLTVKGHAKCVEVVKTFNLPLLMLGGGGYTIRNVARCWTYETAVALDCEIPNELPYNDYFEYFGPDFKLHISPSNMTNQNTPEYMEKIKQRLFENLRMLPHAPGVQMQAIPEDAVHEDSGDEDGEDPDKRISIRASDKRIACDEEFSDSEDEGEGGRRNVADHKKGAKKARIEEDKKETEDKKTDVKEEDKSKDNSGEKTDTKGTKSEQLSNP
Experiment [5] deals with T3, HDAC3 (complex of full length human HDAC3 with human NCOR2 amino acids 395-489) (Homo sapiens, UniProt O15379).
T3 construct: complex of full length human HDAC3 with a C-terminal His-tag; His-tag (C); host or cells: baculovirus expression system
T3 sequence (O15379 whole entry, the tested form may be a part): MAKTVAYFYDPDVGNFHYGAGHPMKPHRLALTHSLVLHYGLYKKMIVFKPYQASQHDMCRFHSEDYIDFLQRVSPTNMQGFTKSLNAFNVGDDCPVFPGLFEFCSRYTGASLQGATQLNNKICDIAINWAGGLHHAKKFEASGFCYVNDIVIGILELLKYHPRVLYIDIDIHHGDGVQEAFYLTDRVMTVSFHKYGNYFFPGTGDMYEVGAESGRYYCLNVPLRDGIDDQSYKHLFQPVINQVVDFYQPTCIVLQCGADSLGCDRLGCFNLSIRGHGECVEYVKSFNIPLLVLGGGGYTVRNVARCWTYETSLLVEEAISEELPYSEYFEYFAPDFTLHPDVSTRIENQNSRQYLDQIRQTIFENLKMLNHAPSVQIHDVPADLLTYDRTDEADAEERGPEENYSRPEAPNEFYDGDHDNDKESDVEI
T3 sequence (Q9Y618 395-489 partner limits assumed): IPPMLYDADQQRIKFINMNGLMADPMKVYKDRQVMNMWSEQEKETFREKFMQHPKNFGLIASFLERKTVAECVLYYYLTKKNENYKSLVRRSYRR
Put plainly: HDAC enzymatic assay, HDAC3. Here is the method: as §1

The mark [6] stands for this setting: Table 2, thio (SH) vs hydroxamate (CONHOH) MBG analogues, read-out: HDAC isoforms, 6 (IC50).
Setting [7] is: Table 2, thio (SH) vs hydroxamate (CONHOH) MBG analogues, read-out: HDAC isoforms, 4 (IC50).
The mark [8] stands for this setting: Table 2, thio (SH) vs hydroxamate (CONHOH) MBG analogues, read-out: HDAC isoforms, 11 (IC50).
Where [9] appears, read: Table 2, thio (SH) vs hydroxamate (CONHOH) MBG analogues, read-out: HDAC isoforms, 2 (IC50).
[10] abbreviates: Table 2, thio (SH) vs hydroxamate (CONHOH) MBG analogues, read-out: HDAC isoforms, 3 (IC50).
[11] abbreviates: fluorogenic tetrapeptide RHKKAc substrate 10 μM, read-out: HDAC isoforms IC50 (nM), 6.
Where [12] appears, read: fluorogenic tetrapeptide RHKKAc substrate 10 μM, read-out: HDAC isoforms IC50 (nM), 4.
The mark [13] stands for this setting: fluorogenic tetrapeptide RHKKAc substrate 10 μM, read-out: HDAC isoforms IC50 (nM), 11.
[14] abbreviates: fluorogenic tetrapeptide RHKKAc substrate 10 μM, read-out: HDAC isoforms IC50 (nM), 2.
[15] abbreviates: fluorogenic tetrapeptide RHKKAc substrate 10 μM, read-out: HDAC isoforms IC50 (nM), 3.

Chain of HDAC4 (P56524 whole entry): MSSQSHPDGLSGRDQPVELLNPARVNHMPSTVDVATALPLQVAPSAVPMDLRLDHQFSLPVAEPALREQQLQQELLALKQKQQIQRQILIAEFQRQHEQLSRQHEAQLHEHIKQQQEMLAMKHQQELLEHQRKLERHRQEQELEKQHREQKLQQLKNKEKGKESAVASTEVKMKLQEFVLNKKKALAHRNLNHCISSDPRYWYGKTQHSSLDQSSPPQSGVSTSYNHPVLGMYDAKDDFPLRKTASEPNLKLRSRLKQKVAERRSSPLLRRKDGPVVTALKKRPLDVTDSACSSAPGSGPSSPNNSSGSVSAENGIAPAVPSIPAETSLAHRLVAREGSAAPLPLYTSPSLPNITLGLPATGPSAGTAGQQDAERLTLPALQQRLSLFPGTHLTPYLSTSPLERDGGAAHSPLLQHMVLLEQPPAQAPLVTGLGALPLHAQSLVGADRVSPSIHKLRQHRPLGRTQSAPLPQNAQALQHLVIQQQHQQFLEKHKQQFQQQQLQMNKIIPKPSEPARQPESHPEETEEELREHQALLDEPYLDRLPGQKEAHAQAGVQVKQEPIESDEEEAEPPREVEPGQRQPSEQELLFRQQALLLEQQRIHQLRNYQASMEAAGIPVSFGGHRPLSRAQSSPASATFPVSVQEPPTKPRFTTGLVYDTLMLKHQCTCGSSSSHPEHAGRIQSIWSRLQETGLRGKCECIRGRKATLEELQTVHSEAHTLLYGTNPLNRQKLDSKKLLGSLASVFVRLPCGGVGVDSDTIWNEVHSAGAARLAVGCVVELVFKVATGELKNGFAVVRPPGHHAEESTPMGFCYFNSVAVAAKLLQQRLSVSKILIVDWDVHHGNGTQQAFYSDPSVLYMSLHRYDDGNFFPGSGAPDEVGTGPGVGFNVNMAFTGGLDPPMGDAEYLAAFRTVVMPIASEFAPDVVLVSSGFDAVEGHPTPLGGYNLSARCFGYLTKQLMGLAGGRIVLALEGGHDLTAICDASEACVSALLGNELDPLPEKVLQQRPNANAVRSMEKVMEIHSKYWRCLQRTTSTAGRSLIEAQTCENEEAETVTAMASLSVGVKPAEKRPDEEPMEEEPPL

`CC(=O)SCCCCC[C@H](NC(=O)[C@H]1CCC(=O)N1)C(=O)Nc1ccccc1` [Example 21, Thioacetic acid S—{(S)-6-[((R)-5-oxo-pyrrolidine-2-carbonyl)-amino]-6-phenylcarbamoyl-hexyl}ester]: the IC50 in experiment [1] (setting [6]) is less than 50 nM; in experiment [2] (setting [7]), less than 50 nM; in experiment [3] (setting [8]) it was less than 50 nM; in experiment [4] (setting [9]), 50 to 100 nM; in experiment [5] (setting [10]), less than 50 nM.
With `O=C1CCC[C@@H](C(=O)N[C@@H](CCCCCS)C(=O)Nc2ccccc2)N1` [Example 23, (S)-6-Oxo-piperidine-2-carboxylic acid ((S)-6-mercapto-1-phenylcarbamoyl-hexyl)amide], the IC50 in experiment [1] (setting [11]) was less than 50 nM; in experiment [2] (setting [12]), less than 50 nM; in experiment [3] (setting [13]), less than 50 nM; in experiment [4] (setting [14]), 50 to 100 nM; in experiment [5] (setting [15]), less than 50 nM.
Consider `O=C1CCC[C@@H](C(=O)N[C@@H](CCCCCS)C(=O)NC2CCCC2)N1` [Example 24, (S)-6-Oxo-piperidine-2-carboxylic acid ((S)-1-cyclopentylcarbamoyl-6-mercapto-hexyl)amide], for which the IC50 in experiment [1] (setting [11]) was less than 50 nM; in experiment [2] (setting [12]) it was less than 50 nM; in experiment [3] (setting [13]), 50 to 100 nM; in experiment [4] (setting [14]) it was 100 to 500 nM; in experiment [5] (setting [15]), 50 to 100 nM.
For the compound `O=C1CCC[C@@H](C(=O)N[C@@H](CCCCCS)C(=O)NCc2cccc(OCc3ccccc3)c2)N1` [Example 25, (S)-6-Oxo-piperidine-2-carboxylic acid [(S)-1-(3-benzyloxy-benzylcarbamoyl)-6-mercapto-hexyl]-amide], the IC50 in experiment [1] (setting [11]) lay in the range of 50 to 100 nM; in experiment [2] (setting [12]), 100 to 500 nM; in experiment [3] (setting [13]), 100 to 500 nM; in experiment [4] (setting [14]) it was 100 to 500 nM; in experiment [5] (setting [15]), 100 to 500 nM.
Turning to `O=C1CCC[C@@H](C(=O)N[C@@H](CCCCCS)C(=O)NCc2ccc(C(F)(F)F)cc2)N1` [Example 26, (S)-6-Oxo-piperidine-2-carboxylic acid [(S)-6-mercapto-1-(4-trifluoromethyl-benzylcarbamoyl)-hexyl]-amide], the IC50 in experiment [1] (setting [11]) was 100 to 500 nM; in experiment [2] (setting [12]), less than 50 nM; in experiment [3] (setting [13]), 100 to 500 nM; in experiment [4] (setting [14]), 100 to 500 nM; in experiment [5] (setting [15]) it was 100 to 500 nM.
Consider `O=C1C[C@@H](C(=O)N[C@@H](CCCCCS)C(=O)Nc2ccccc2)N1` [Example 27, (S)-4-Oxo-azetidine-2-carboxylic acid ((S)-6-mercapto-1-phenylcarbamoyl-hexyl)amide], for which the IC50 in experiment [1] (setting [11]) was less than 50 nM; in experiment [2] (setting [12]), 100 to 500 nM; in experiment [3] (setting [13]) it was less than 50 nM; in experiment [4] (setting [14]), 50 to 100 nM; in experiment [5] (setting [15]), less than 50 nM.
For the compound `O=C1NC[C@H](c2ccccc2)[C@@H]1C(=O)N[C@@H](CCCCCS)C(=O)Nc1ccccc1` [Example 28, (3S,4S)-2-Oxo-4-phenyl-pyrrolidine-3-carboxylic acid ((S)-6-mercapto-1-phenylcarbamoyl-hexyl)-amide], the IC50 in experiment [1] (setting [11]) is less than 50 nM; in experiment [2] (setting [12]), less than 50 nM; in experiment [3] (setting [13]), less than 50 nM; in experiment [4] (setting [14]) it was 100 to 500 nM; in experiment [5] (setting [15]), less than 50 nM.
With `O=C1NC[C@@H](c2ccccc2)[C@H]1C(=O)N[C@@H](CCCCCS)C(=O)Nc1ccccc1` [Example 29, (3R,4R)-2-Oxo-4-phenyl-pyrrolidine-3-carboxylic acid ((S)-6-mercapto-1-phenylcarbamoyl-hexyl)-amide], the IC50 in experiment [1] (setting [11]) is less than 50 nM; in experiment [2] (setting [12]) it was less than 50 nM; in experiment [3] (setting [13]), less than 50 nM; in experiment [4] (setting [14]), 100 to 500 nM; in experiment [5] (setting [15]) it was 50 to 100 nM.
Take `O=C1NC[C@H](c2ccccc2)[C@H]1C(=O)N[C@@H](CCCCCS)C(=O)Nc1ccccc1` [Example 30, (3R,4S)-2-Oxo-4-phenyl-pyrrolidine-3-carboxylic acid ((S)-6-mercapto-1-phenylcarbamoyl-hexyl)-amide]: the IC50 is 100 to 500 nM in experiment [1] (setting [11]); less than 50 nM in experiment [2] (setting [12]); less than 50 nM in experiment [3] (setting [13]); 100 to 500 nM in experiment [4] (setting [14]); 50 to 100 nM in experiment [5] (setting [15]).
As to `O=C1NC[C@@H](c2ccccc2)[C@@H]1C(=O)N[C@@H](CCCCCS)C(=O)Nc1ccccc1` [Example 31, (3S,4R)-2-Oxo-4-phenyl-pyrrolidine-3-carboxylic acid ((S)-6-mercapto-1-phenylcarbamoyl-hexyl)-amide], the IC50 in experiment [1] (setting [6]), in experiment [1] (setting [11]), in experiment [2] (setting [7]), in experiment [2] (setting [12]), in experiment [3] (setting [8]) and in experiment [3] (setting [13]) was less than 50 nM each time. The IC50 in experiment [4] (setting [9]), in experiment [4] (setting [14]), in experiment [5] (setting [10]) and in experiment [5] (setting [15]) was less than 50 nM in each case.
With `O=C1CCC[C@@H](C(=O)N[C@@H](CCCCCS)C(=O)N2CCc3ccccc3C2)N1` [Example 32, (S)-6-Oxo-piperidine-2-carboxylic acid [(S)-1-(3,4-dihydro-1H-isoquinoline-2-carbonyl)-6-mercapto-hexyl]-amide], the IC50 in experiment [1] (setting [11]) is 100 to 500 nM; in experiment [2] (setting [12]), less than 50 nM; in experiment [3] (setting [13]), 100 to 500 nM; in experiment [4] (setting [14]), less than 50 nM; in experiment [5] (setting [15]), 100 to 500 nM.
`O=C1CC[C@H](C(=O)N[C@@H](CCCCCS)C(=O)Nc2ccccc2)N1` [Example 33, (R)-5-Oxo-pyrrolidine-2-carboxylic acid ((S)-6-mercapto-1-phenylcarbamoyl-hexyl)amide]: the IC50 in experiment [1] (setting [6]) is less than 50 nM; in experiment [1] (setting [11]), less than 50 nM; in experiment [2] (setting [7]), 50 to 100 nM; in experiment [2] (setting [12]) it was 50 to 100 nM; in experiment [3] (setting [8]) it was less than 50 nM; in experiment [3] (setting [13]), less than 50 nM. The IC50 is 50 to 100 nM in experiment [4] (setting [9]), 50 to 100 nM in experiment [4] (setting [14]), less than 50 nM in experiment [5] (setting [10]) and less than 50 nM in experiment [5] (setting [15]).
`Cc1cccc(CCNC(=O)[C@H](CCCCCS)NC(=O)[C@@H]2CCCC(=O)N2)c1` [Example 34, (S)-6-Oxo-piperidine-2-carboxylic acid [(S)-6-mercapto-1-(2-m-tolyl-ethylcarbamoyl)hexyl]-amide]: the IC50 is less than 50 nM in experiment [1] (setting [11]); less than 50 nM in experiment [2] (setting [12]); 50 to 100 nM in experiment [3] (setting [13]); 100 to 500 nM in experiment [4] (setting [14]); 100 to 500 nM in experiment [5] (setting [15]).
On to `O=C1NCCC[C@H]1C(=O)N[C@@H](CCCCCS)C(=O)Nc1ccccc1` [Example 35, (R)-2-Oxo-piperidine-3-carboxylic acid ((S)-6-mercapto-1-phenylcarbamoyl-hexyl)amide], for which the IC50 in experiment [1] (setting [11]), in experiment [2] (setting [12]), in experiment [3] (setting [13]), in experiment [4] (setting [14]) and in experiment [5] (setting [15]) was less than 50 nM throughout.
